Reference: US8080577B2, “Diindolylmethane formulations for the treatment of leiomyomas” (Bioresponse, L.L.C., priority 2004, dated 2011)
Entries after “also recorded” stand apart in the source; their conditions may differ.

Columns and labels:
Type in all cases: in vivo, human
[1] = system: uterine leiomyomas; experiment: Oral absorption-enhanced DIM in women with uterine leiomyomas, tumor volume by serial pelvic ultrasound; settings: for Post-DIM Treatment Tumor Volume: oral absorption-enhanced DIM
Experimental: Expected results are clinical improvement in symptoms and reduction of leiomyoma size documented in serial sonograms. […] Women with uterine leiomyomas have been selected based on the findings of abnormal uterine sonograms showing measurable leiomyoma documented on more than one occasion. Three subjects were proceeding to provide a baseline 12-hour urine collection and began to take absorbable DIM 150 to 450 mg [37.5-112 mg actual DIM] twice daily for 3-6 months. Two women have completed participation in a preliminary study, completing 2 and 6 month treatment periods. Subject A was a multiparous person with regular menstrual periods, taking thyroid hormone replacement to correct primary hypothyroidism and using no other medications. Subject B was a person taking no medications with regular periods. After informed consent, a pretreatment ultrasound was obtained for each subject. Each subject provided a 12 or 24 hour urine specimen which was frozen. Subject A began taking 2 capsules twice daily of absorption-enhanced DIM (BioResponse, LLC, Boulder Colo.) providing DIM at […]. Subject B took 3 capsules twice daily of absorption-enhanced DIM (BioResponse, LLC, Boulder Colo.) providing DIM at […]. After 2 months of treatment, Subject A was re-evaluated by the same ultrasound technician using the same equipment and at the same phase of their menstrual cycle. A post treatment urine was also obtained, collected at the same point in the menstrual cycle as the baseline urine sample. Similarly, Subject B was re-evaluated after 6 months of treatment using absorption-enhanced DIM (BioResponse-DIM). They took a higher twice daily dose providing […]. Their re-evaluation included pelvic ultrasonography following a series of 3 pre-treatment pelvic ultrasound evaluations all performed with the same equipment. Like Subject A, Subject B provided a before and after DIM treatment urine sample. The pelvic ultrasound data were analysed using a mathematical formula to calculate the pre-treatment and post-treatment volume of individual leiomyoma based on the widest diameter and the diameter perpendicular to this measured in centimeters (cm). A calculation of individual tumor volume was performed, treating each tumor as an ovoid mass, using the formula: V=4/3π(H/2)^2(L/2), where V=volume in cubic centimeters (cm^3), H=tumor height in centimeters (cm), and L=tumor length in centimeters (cm). This method provided individual tumor volumes in cubic centimeters (cm^3).

[2] = system: estrogen metabolites in urine; experiment: GCMS assay of urinary estrogen metabolites before and after DIM treatment
[3] = system: estrogen metabolites in urine; experiment: as above; settings: after vs before DIM
Experimental: After informed consent, a pretreatment ultrasound was obtained for each subject. Each subject provided a 12 or 24 hour urine specimen which was frozen. Subject A began taking 2 capsules twice daily of absorption-enhanced DIM (BioResponse, LLC, Boulder Colo.) providing DIM at […]. Subject B took 3 capsules twice daily of absorption-enhanced DIM (BioResponse, LLC, Boulder Colo.) providing DIM at […]. After 2 months of treatment, Subject A was re-evaluated by the same ultrasound technician using the same equipment and at the same phase of their menstrual cycle. A post treatment urine was also obtained, collected at the same point in the menstrual cycle as the baseline urine sample. Similarly, Subject B was re-evaluated after 6 months of treatment using absorption-enhanced DIM (BioResponse-DIM). They took a higher twice daily dose providing […]. Their re-evaluation included pelvic ultrasonography following a series of 3 pre-treatment pelvic ultrasound evaluations all performed with the same equipment. Like Subject A, Subject B provided a before and after DIM treatment urine sample.
The urine samples were tested at the Bradlow/Sepkovic Laboratory, Hackensack University Medical Center, Hackensack, N.J. The technique utilized was an established gas chromatography-mass spectrometry (GCMS) assay for estradiol (E2), estrone (E1), 2-hydroxy estrone (2OH-E1), 4-hydroxy estrone (4OH-E1), 16-hydroxy estrone (16OH-E1), and estriol (E3) in urine (Michnovicz et al., 1997, J Natl Cancer Inst. 89(10):718-23). […] Laboratory analysis is expected to show an increase in 2-hydroxy estrone, and a decrease in 16-hydroxy estrone, as measured in pre-treatment as compared to post-treatment urine samples. […] Results of before and after DIM treatment are presented in Table 8, showing the metabolites of interest as a percent of the total estrogen metabolites measured and as ratios of the amounts of 2OH-E1 to 16OH-E1 (2OH-E1/16OH-E1) determined for each sample. […]

[4] = system: uterine leiomyoma; experiment: Clinical case: oral absorption-enhanced DIM in a person with symptomatic uterine leiomyoma; settings: after two months
Experimental: A person was symptomatic from uterine leiomyoma, experiencing painful menses with excessive bleeding, frequency of urination, and inability to exercise due to tiredness. […] A blood test indicated mild anemia. […] The patient initiated therapy with capsules of DIM, formulated for enhanced absorption as described in Example 1. A dose of 120 mg of DIM formulation, given three times per day, delivering 30 mg of actual DIM per dose, was used.

[5] = Subject A, 200 mg/day DIM, taken for 2 months
[6] = Subject B, 300 mg/day DIM, taken for 6 months
[7] = 30 mg actual DIM three times per day

## c1ccc2c(Cc3c[nH]c4ccccc34)c[nH]c2c1 [DIM, 3,3′-diindolylmethane]
[1]; Subject A, 2 month treatment
  average percent reduction in tumor volume: 33.5%
[1]; Subject A, Tumor 1, oral DIM 200 mg/day, 2 months
  Percent Decrease in Tumor Volume: 83.11%
[1]; Subject A, Tumor 1, 200 mg/day DIM, 2 months
  Post-DIM Treatment Tumor Volume: 3.783 cm^3
[1]; Subject A, Tumor 2, oral DIM 200 mg/day, 2 months
  Percent Decrease in Tumor Volume: 2.06%
[1]; Subject A, Tumor 2, 200 mg/day DIM, 2 months
  Post-DIM Treatment Tumor Volume: 114.4901 cm^3
[1]; Subject A, Tumor 3, oral DIM 200 mg/day, 2 months
  Percent Decrease in Tumor Volume: 15.32%
[1]; Subject A, Tumor 3, 200 mg/day DIM, 2 months
  Post-DIM Treatment Tumor Volume: 53.2 cm^3
[1]; Subject B, 6 month treatment
  average reduction in tumor volume: 78.6%
[1]; Subject B, Tumor 1, oral DIM 300 mg/day, 6 months
  Percent Decrease in Tumor Volume: 71.9605%
[1]; Subject B, Tumor 1, 300 mg/day DIM, 6 months
  Post-DIM Treatment Tumor Volume: 5.575 cm^3
[1]; Subject B, Tumor 2, oral DIM 300 mg/day, 6 months
  Percent Decrease in Tumor Volume: 47.75%
[1]; Subject B, Tumor 2, 300 mg/day DIM, 6 months
  Post-DIM Treatment Tumor Volume: 1.877 cm^3
[1]; Subject B, Tumor 3, oral DIM 300 mg/day, 6 months
  Percent Decrease in Tumor Volume: 38.51%
[1]; Subject B, Tumor 3, 300 mg/day DIM, 6 months
  Post-DIM Treatment Tumor Volume: 6.094 cm^3
[1]; Subject B, Tumor 4, oral DIM 300 mg/day, 6 months
  Percent Decrease in Tumor Volume: 53.06%
[1]; Subject B, Tumor 4, 300 mg/day DIM, 6 months
  Post-DIM Treatment Tumor Volume: 0.8849 cm^3
[1]; Subject B, Tumor 5, oral DIM 300 mg/day, 6 months
  Percent Decrease in Tumor Volume: 62.41%
[1]; Subject B, Tumor 5, 300 mg/day DIM, 6 months
  Post-DIM Treatment Tumor Volume: 0.7964 cm^3
[1]; preliminary treatment of women with oral DIM
  leiomyoma size by serial pelvic ultrasound: meaningful reduction of leiomyoma size; also recorded: consistent reduction of intra-uterine leiomyoma size
[1]; women treated with oral DIM, 2 and 6 months
  side effects associated with reduction in leiomyoma volume: not associated with amenorrhea, hypo-estrogenemia, hot flashes, or other reported side effects
[2]; [5]
  2OH-E1/16OH-E1 ratio, After DIM: 1.7
  2OH-Estrone (2OH-E1), percent of total estrogen metabolites measured, After DIM: 8.3%
  4OH-Estrone (4OH-E1), percent of total estrogen metabolites measured, After DIM: 0.7%
  16OH-Estrone (16OH-E1), percent of total estrogen metabolites measured, After DIM: 4.9%
[2]; [6]
  2OH-E1/16OH-E1 ratio, After DIM: 9.5
  2OH-Estrone (2OH-E1), percent of total estrogen metabolites measured, After DIM: 35%
  4OH-Estrone (4OH-E1), percent of total estrogen metabolites measured, After DIM: 1.7%
[3]; Subject A
  change in 16OH-E1: treatment related reduction
[3]; Subject B, treated at a higher dose
  change in 4OH-E1: treatment related reduction
[3]; both Subjects
  change in 2OH-E1 and the 2OH-E1/16OH-E1 ratio: large treatment related increases
[4]; [7]
  repeat abdominal exam: no visible or palpable pelvic masses
  repeat pelvic exam: normal appearing uterine cervix and a palpable uterus of much reduced size
[4]; 120 mg DIM formulation (30 mg actual DIM) three times per day
  myoma-related symptoms described by the patient: normal menstrual flow with normal levels of discomfort and improved energy
